Experimental data published in patent US7456146B2, “Lytic peptide prodrugs” (GHC Research Development Corporation, priority 2001, dated 2008).
Starred links: 1 amine or outer side, 2 acyl side, 3 side chain; linkers in the order of their positions; H or OH if unused. Groups on a side chain read outwards from the residue. No end group written: not given here. γGlu = O=C(O)[C@H](CCC(=O)[*:2])N[*:1]

Legend:
[1] = test system: SK-OV-3; assay: lytic activity on cultured tumor cells, ovarian tumor SK-OV-3 (FIG. 4); assay type: cell-based; conditions: 1, 10, 50 or 100 μM peptide
Experimental: (§1) This experiment, utilized a melittin analog having A [ε-γ]-Glu-[α-γ]-Glu at each of lysines 21 and 23: NH2-[…][ε-γ]-Glu-[α-γ]-Glu)-Arg-Lys([ε-γ]-Glu-[α-γ]-Glu)-Arg-Gln-Gln-COOH. (SEQ ID NO: 19) Two prostate tumors (PNCap and DU0145), two ovarian tumors (HeLa and SK-OV-3), one lung tumor (LLC 1) and one melanoma (B 16) were tested. Cultured cells were treated with 1, 10, 50 or 100 μM peptide.

[2] = test system: PNCap; assay: lytic activity on cultured tumor cells, prostate tumor PNCap (FIG. 4); assay type: cell-based; conditions: 1, 10, 50 or 100 μM peptide
Experimental: as §1

[3] = test system: PSMA-expressing prostate cells (LNCaP-FCG); assay: toxicity to PSMA-expressing prostate cells (FIG. 5); assay type: cell-based; conditions: 25 and 50 mM concentrations
From the text: (§2) The same analog was used to treat a PSMA-expressing prostate cells (LNCaP-FCG), ovarian cancer cells (HeLa) or prostate cells not expressing PSMA (PC3).

[4] = test system: DU0145; assay: lytic activity on cultured tumor cells, prostate tumor DU0145 (FIG. 4); assay type: cell-based; conditions: 1, 10, 50 or 100 μM peptide
Experimental: as §1

[5] = test system: HeLa; assay: lytic activity on cultured tumor cells, HeLa (FIG. 4, FIG. 5); assay type: cell-based
Experimental: as §1, §2

[6] = test system: prostate cells not expressing PSMA (PC3); assay: toxicity to prostate cells not expressing PSMA (FIG. 5); assay type: cell-based; conditions: 25 and 50 mM concentrations
From the text: as §2

[7] = test system: LLC 1; assay: lytic activity on cultured tumor cells, lung tumor LLC 1 (FIG. 4); assay type: cell-based; conditions: 1, 10, 50 or 100 μM peptide
Experimental: as §1

[8] = test system: mice; assay: toxicity of escalating doses in mice; assay type: in vivo; conditions: 50, 100, 150 and 200 mM
Experimental: To assess the toxicity of this analog, mice were treated with escalating doses of analog, either subcutaneously or intravenously.

[9] = test system: B 16; assay: lytic activity on cultured tumor cells, melanoma B 16 (FIG. 4); assay type: cell-based; conditions: 1, 10, 50 or 100 μM peptide
Experimental: as §1

[10] = test system: nucleated cells; conditions: cited from earlier work
[11] = test system: human prostate cancer cells (LNCaP); assay: cell lysis assay, LNCaP prostate tumor cells (FIG. 1); assay type: cell-based; conditions: 50 μM; after 15 minutes
Experimental: For cell lysis assay, 10^6 LNCaP prostate tumor cells were cultured in 48-well plate in 200 μl culture medium containing different concentrations of the peptide. The culture medium for LNCaP cell was RPMI 1640 medium with 2 mM L-glutamine adjusted to contain 1.5 g/L sodium bicarbonate, 4.5 g/L glucose, 10 mM HEPES, 1.0 mM sodium pyruvate, 90%; fetal bovine serum 10%. […]

[12] = test system: human prostate cancer cells (LNCaP); assay: ATP depletion assay (ATP bioluminescence), LNCaP (FIG. 3); assay type: cell-based; conditions: 50 or 100 μM; after 1 hour
From the text: (§3) In order to obtain a more quantitative result, the assay was repeated and decrease in ATP levels was used as a surrogate marker for live versus dead cells. ATP plays a central role in the energy status of the cell and the regulation of enzymatic activity. The intracellular ATP level is strictly regulated. The assay of ATP has been used as a rapid and convenient measure of viable cell numbers. ATP level can be enzymatically determined with firefly luciferase, which specifically catalyzes the hydrolysis of ATP. The amount of light generated by this enzymatic reaction is directly related to the amount of ATP in the original sample.
(§4) For this purpose, the ATP Bioluminescence Assay Kit CLS II from Boehringer-Mannheim (Cat. No. 1699695) was employed. Briefly, 10^6 cells in 200 μl of medium containing the peptide, as above, were incubated at 37° C. in a CO2 incubator for 60 min. The cells were then lysed with 10 μl of 10% Triton X-100. Each lysate was transferred into a tube containing 155 μl of distilled water and 25 μl of stock luciferase and chemiluminescence was measured in a luminometer as directed by the manufacturer. As can been seen from FIG. 3, ATP is dramatically depleted in the presence of either 50 or 100 μM peptide, as compared to the controls.

[13] = test system: mouse L-cells; assay: cell lysis assay, mouse L-cells (FIG. 1); assay type: cell-based; conditions: 50 μM; after 24 hours
[14] = test system: mouse L-cells; assay: ATP depletion assay (ATP bioluminescence), mouse L-cells (FIG. 3); assay type: cell-based; conditions: 50 or 100 μM; 1 hour
From the text: as §3, §4

With `CC[C@H](C)[C@H](NC(=O)CN)C(=O)NCC(=O)N[C@@H](C)C(=O)N[C@H](C(=O)N[C@@H](CC(C)C)C(=O)N[C@@H](CCCCN)C(=O)N[C@H](C(=O)N[C@@H](CC(C)C)C(=O)N[C@H](C(=O)N[C@H](C(=O)NCC(=O)N[C@@H](CC(C)C)C(=O)N1CCC[C@H]1C(=O)N[C@@H](C)C(=O)N[C@@H](CC(C)C)C(=O)N[C@H](C(=O)N[C@@H](CO)C(=O)N[C@@H](Cc1c[nH]c2ccccc12)C(=O)N[C@H](C(=O)N[C@@H](CCCCNC(=O)CC[C@H](NC(=O)CC[C@H](N)C(=O)O)C(=O)O)C(=O)N[C@@H](CCCNC(=N)N)C(=O)N[C@@H](CCCCNC(=O)CC[C@H](NC(=O)CC[C@H](N)C(=O)O)C(=O)O)C(=O)N[C@@H](CCCNC(=N)N)C(=O)N[C@@H](CCC(N)=O)C(=O)N[C@@H](CCC(N)=O)C(=O)O)[C@@H](C)CC)[C@@H](C)CC)[C@@H](C)O)[C@@H](C)O)C(C)C)C(C)C` [melittin analog] the lytic activity [1] was “strong lytic activity”, the lytic activity [2] was “strong lytic activity” and the toxicity to cells [3] was “highly toxic”. For the same molecule, the lytic activity [4] was “strong lytic activity”, the lytic activity ([5]; 1, 10, 50 or 100 μM peptide) was “strong lytic activity” and the toxicity to cells ([5]; 25 and 50 mM concentrations) was “highly toxic”. The toxicity to cells [6] was “relatively unaffected”, the lytic activity [7] was “strong lytic activity” and the “tolerated concentration relative to concentration needed to kill a mouse using the unmasked melittin peptide” value [8] was 50-200 fold. For the same molecule, the “condition of mice after treatment” value ([8]; subcutaneously or intravenously, weeks following treatment) was “remained healthy, apparently unaffected” and the lytic activity [9] was “strong lytic activity”.
In the case of “NH2-Gly-Phe-Ile-Ala-Thr-Leu-Cys-Thr-Lys-Val-Leu-Asp-Phe-Gly-Ile-Asp-Lys-Leu-Ile-Gln-Leu-Ile-Glu-Asp-Lys-CONH2 (H-GFIATLCTKVLDFGIDKLIQLIEDK-NH2; listed as Entamoeba histolytica) [Amoebapore Helix 3]”, the “concentration with cytolytic activity” value [10] is given as 10 to 100 µM.
In the case of “amoebapore helix 3-γ-Glu-γ-Glu: 25-residue C-terminal amidated amoebapore helix 3 peptide with two γ-linked glutamates on the ε amino group of the C-terminal lysine (GFIATLCTKVLDFGIDKLIQLIEDK([γGlu-γGlu])-NH2; N-terminus assumed; SMILES CC[C@H](C)[C@H](NC(=O)CNC(=O)[C@H](Cc1ccccc1)NC(=O)[C@H](CC(=O)O)NC(=O)[C@H](CC(C)C)NC(=O)[C@@H](NC(=O)[C@H](CCCCN)NC(=O)[C@@H](NC(=O)[C@H](CS)NC(=O)[C@H](CC(C)C)NC(=O)[C@@H](NC(=O)[C@H](C)NC(=O)[C@@H](NC(=O)[C@H](Cc1ccccc1)NC(=O)CN)[C@@H](C)CC)[C@@H](C)O)[C@@H](C)O)C(C)C)C(=O)N[C@@H](CC(=O)O)C(=O)N[C@@H](CCCCN)C(=O)N[C@@H](CC(C)C)C(=O)N[C@H](C(=O)N[C@@H](CCC(N)=O)C(=O)N[C@@H](CC(C)C)C(=O)N[C@H](C(=O)N[C@@H](CCC(=O)O)C(=O)N[C@@H](CC(=O)O)C(=O)N[C@@H](CCCCNC(=O)CC[C@H](NC(=O)CC[C@H](N)C(=O)O)C(=O)O)C(N)=O)[C@@H](C)CC)[C@@H](C)CC)”, the cell lysis [11] was “completely lysed”, the “cell lysis by ATP depletion” value [12] was “completely lysed” and the cell lysis [13] was “remain unaffected”. The “cell lysis by ATP depletion” value [14] was “remain unaffected”.
